Test results as given in ChEMBL document CHEMBL6103613 (J Med Chem, 2025).
In brackets after ≈: the same amount, converted by molar mass.

Tests used:
Assay type in all cases: functional
[1] = system: Enterococcus gallinarum; experiment: Antimicrobial activity against Enterococcus gallinarum ATCC 49573 assessed as inhibition of visible bacterial growth incubated for 18 hrs by CLSI based analysis
[2] = system: Staphylococcus aureus; experiment: Antimicrobial activity against Staphylococcus aureus ATCC 25923 assessed as inhibition of visible bacterial growth incubated for 18 hrs by CLSI based analysis
[3] = system: Staphylococcus aureus; experiment: Antimicrobial activity against methicillin-resistant Staphylococcus aureus clinical isolate 4 assessed as inhibition of visible bacterial growth incubated for 18 hrs by CLSI based analysis
[4] = system: Enterococcus faecalis; experiment: Antimicrobial activity against Enterococcus faecalis ATCC 19433 assessed as inhibition of visible bacterial growth incubated for 18 hrs by CLSI based analysis
[5] = system: Staphylococcus aureus; experiment: Antimicrobial activity against methicillin-resistant Staphylococcus aureus clinical isolate 2 assessed as inhibition of visible bacterial growth incubated for 18 hrs by CLSI based analysis
[6] = system: Staphylococcus aureus; experiment: Antimicrobial activity against methicillin-resistant Staphylococcus aureus clinical isolate 3 assessed as inhibition of visible bacterial growth incubated for 18 hrs by CLSI based analysis
[7] = system: Staphylococcus epidermidis; experiment: Antimicrobial activity against Staphylococcus epidermidis ATCC 12228 assessed as inhibition of visible bacterial growth incubated for 18 hrs by CLSI based analysis
[8] = system: Enterococcus faecium; experiment: Antimicrobial activity against vancomycin-resistant Enterococcus faecium assessed as inhibition of visible bacterial growth incubated for 18 hrs by CLSI based analysis
[9] = system: Staphylococcus aureus; experiment: Antimicrobial activity against methicillin-resistant Staphylococcus aureus ATCC 43300 assessed as inhibition of visible bacterial growth incubated for 18 hrs by CLSI based analysis
[10] = system: Bacillus subtilis; experiment: Antimicrobial activity against Bacillus subtilis ATCC 23875 assessed as inhibition of visible bacterial growth incubated for 18 hrs by CLSI based analysis
[11] = system: Staphylococcus aureus; experiment: Antibacterial activity against methicillin-resistant Staphylococcus aureus infected in kunming mouse keratitis model assessed as log reduction in colony count at 5 mg/kg, ip measured upto 8 days; details: time <= 8 day
[12] = system: Staphylococcus aureus; experiment: Drug resistance, ratio of MIC for Staphylococcus aureus after 12 passages to MIC for Staphylococcus aureus during first exposure
[13] = system: Staphylococcus aureus; experiment: Drug resistance, ratio of MIC for Staphylococcus aureus after 6 passages to MIC for Staphylococcus aureus during first exposure
[14] = system: Staphylococcus aureus; experiment: Drug resistance, ratio of MIC for Staphylococcus aureus after 21 passages to MIC for Staphylococcus aureus during first exposure
[15] = system: Staphylococcus aureus; experiment: Drug resistance, ratio of MIC for Staphylococcus aureus after 15 passages to MIC for Staphylococcus aureus during first exposure

SMILES | MIC [1] | MIC [2] | MIC [3] | MIC [4] | MIC [5] | MIC [6] | MIC [7] | MIC [8] | MIC [9] | MIC [10] | FC [11] | Ratio [12] | Ratio [13] | Ratio [14] | Ratio [15]
CC(=O)NC[C@H]1CN(c2ccc(N3CCOCC3)c(F)c2)C(=O)O1 [LINEZOLID] | 1.56 µg/mL (≈ 4.62 µM) | 1.56 µg/mL (≈ 4.62 µM) | 1.56 µg/mL (≈ 4.62 µM) | 1.56 µg/mL (≈ 4.62 µM) | 3.13 µg/mL (≈ 9.28 µM) | 1.56 µg/mL (≈ 4.62 µM) | 0.39 µg/mL (≈ 1.16 µM) | 1.56 µg/mL (≈ 4.62 µM) | 1.56 µg/mL (≈ 4.62 µM) | 1.56 µg/mL (≈ 4.62 µM) | 0.864 |  |  |  | 
CC1(C)S[C@@H]2[C@H](NC(=O)[C@H](N)c3ccc(O)cc3)C(=O)N2[C@H]1C(=O)O [AMOXICILLIN] |  |  |  |  |  |  |  |  |  |  |  | 30 | 10 | 250 | 250
